According to patent US20220242894A1, “Ruthenium (II) Complexes and Their Use as AntiCancer Agents” (Paris Sciences et Lettres, priority 2019, published 2022):
Like-named read-outs stand apart in the source and are kept apart here.

What was measured:
[1] = test system: CT-26 LUC (mouse colon adenocarcinoma stably expressing luciferase); assay: Cytotoxicity, fluorometric cell viability assay (resazurin), CT-26 LUC; type: cell-based; conditions: read-out: IC50 (μM) CT-26 luc
Protocol: (§1) HeLa and CT-26 cell lines were cultured in DMEM media (Gibco) supplemented with 10% of fetal calf serum (Gibco). CT-26 LUC cell line was cultured in DMEM media (Gibco) supplemented with 10% of fetal calf serum (Gibco) and 1% Genticin. RPE-1 cell line was cultured in DMEM/F-12 media (Gibco) supplemented with 10% of fetal calf serum. […] The resistance of A2780 cis was maintained by cisplatin treatment (1 μM) for one week every month. […] U87 cell line was cultured in MEM media (Gibco) supplemented with 10% of fetal calf serum (Gibco) and 1% of non-essential amino acid mixture (Gibco). Cell lines were complemented with 100 U/ml penicillin-streptomycin mixture (Gibco) and maintained in humidified atmosphere at 37° C. and 5% of CO2.
(§2) Cytotoxicity of the tested Ru compounds according to the present invention was assessed by a fluorometric cell viability assay using Resazurin (ACROS Organics). […] After 24 h, cells were treated with increasing concentrations of the compounds. Compounds dilutions were prepared as follows: 2.5 mM stock in DMSO was further diluted to 100 μM with media and then filtrated. After 48 h incubation, medium was removed, and 100 μl of complete medium containing resazurin (0.2 mg/ml final concentration) was added. […] IC50 values were then calculated using GraphPad Prism software.

[2] = test system: A2780 (human ovarian carcinoma); assay: Cytotoxicity, fluorometric cell viability assay (resazurin), A2780; type: cell-based; conditions: read-out: IC50 (μM) A2780
Protocol: as §1, §2

[3] = test system: A2780 cis (human cisplatin resistant ovarian carcinoma); assay: Cytotoxicity, fluorometric cell viability assay (resazurin), A2780 cis; type: cell-based; conditions: read-out: IC50 (μM) A2780 cis
Protocol: as §1, §2

[4] = test system: A2780 ADR (human doxorubicin resistant ovarian carcinoma); assay: Cytotoxicity, fluorometric cell viability assay (resazurin), A2780 ADR; type: cell-based
Protocol: as §1, §2

[5] = test system: RPE-1 (normal retina pigmented epithelial); assay: Cytotoxicity, fluorometric cell viability assay (resazurin), RPE-1; type: cell-based; conditions: read-out: IC50 (μM) RPE-1
Protocol: as §1, §2

[6] = test system: CT-26 (mouse colon adenocarcinoma); assay: Cytotoxicity, fluorometric cell viability assay (resazurin), CT-26; type: cell-based; conditions: read-out: IC50 (μM) CT-26
Protocol: as §1, §2

HeLa (human cervical) = assay: Cytotoxicity, fluorometric cell viability assay (resazurin), HeLa; type: cell-based; conditions: read-out: IC50 (μM) HeLa
Protocol: as §1, §2

solid Ehrlich tumour [7] = assay: Survival of mice bearing solid Ehrlich tumour; type: in vivo; conditions: 5 mg/kg i.p. on days 1 and 7, tumour-bearing NMRI mice
Excerpt: A solid Ehrlich tumour was purchased from the Research Institute for Pharmacy and Biochemistry (VUFB) in Prague, and then maintained in NMRI mice by periodical transplantations. […] On the tenth day, half of the mice were sacrificed, and their tumours were weighed. The remaining animals were left in order to observe their survival.
One-Way Analysis of Variance with post-hoc Dunnetts's multiple comparison test was used to detect differences in tumour weight. Kaplan-Meier curves (FIG. 4) and logrank tests were used to compare survival times in groups. Here, the level of significance was α=0.05.

solid Ehrlich tumour [8] = assay: Tumour weight, solid Ehrlich tumour, day 10; conditions: 5 mg/kg i.p. on days 1 and 7, measured on day 10
Excerpt: Values are the means±SEM (n=7 in each group).
A solid Ehrlich tumour was purchased from the Research Institute for Pharmacy and Biochemistry (VUFB) in Prague, and then maintained in NMRI mice by periodical transplantations. […] On the tenth day, half of the mice were sacrificed, and their tumours were weighed.
One-Way Analysis of Variance with post-hoc Dunnetts's multiple comparison test was used to detect differences in tumour weight.

[9] = Encapsulation in polysorbate 80 (film rehydration); type: physicochemical; conditions: in 50 mg/mL of polysorbate 80 in PBS, after 0.20 μm filtration
Protocol: The solvent was removed by rotary evaporation at 40° C. The red film was then resuspended in PBS (2 mL) at room temperature. The solution was finally sterile filtered on a 0.20 μm nylon membrane (Corning© 431224) to yield a clear red solution.
50 μL of the sample was diluted in 100 μL of acetonitrile and the absorbance was recorded at 480 nm in 96 wells plates from Corning© (Fisher Scientific 15329740) using a SpectraMax M5 microplate Reader.
Encapsulation efficiency was calculated by comparing the absorbance of the solution before and after filtration using the following equation.
To ensure its repeatability, the procedure was performed in triplicate.

[10] = test system: fuel pathways (glucose, glutamine, fatty acid) in CT-26 cells; assay: Seahorse fuel flex assay; type: cell-based, mouse; conditions: CT-26, 1 μM, 24 h incubation
Protocol: (§3) The preference of compound 1 to accumulate in the nucleus and mitochondria in HeLa cells inspired further studies on metabolic pathways that could be affected by the compound. For this purpose, Seahorse XF Analyzer was used. […] The effect on the other metabolic pathways, i.e. glycolysis and the possible metabolic modulation of the three primary fuel pathways, i.e. glucose, glutamine and fatty acid were then examined.
CT-26 cells were seeded in Seahorse XFe96 well plates at a density of 30,000 cells/well in 80 μL. […] After 24 h of incubation, the regular media was removed and the cells were washed thrice using bicarbonate, and serum free DMEM, supplemented with 1.8 mg/mL glucose, 1% glutamine and 1% sodium pyruvate and incubated in a non-CO2 incubator at 37° C. for an hour. Fuel flex assay for the different fuel pathways viz. glucose, glutamine and fatty acid was studied by measuring the basal oxygen consumption rates and that after addition of the inhibitor of the target pathway in port A and a mixture of the inhibitors of the other two pathways in port B. This gave a measure of the dependency of the cells on a fuel pathway. To study the capacity of a certain fuel pathway, the sequence of addition of the inhibitors was reversed. In port A was added the mixture of inhibitors for the other pathways and in port B was added the inhibitor for the target pathway. […]

[11] = test system: mitochondrial metabolism (oxidative phosphorylation) in CT-26 cell line; assay: Seahorse Mitostress test; type: cell-based, mouse; conditions: CT-26, 1 μM, 24 h incubation
Protocol: as §3
CT-26 cells were seeded in Seahorse XFe96 well plates at a density of 30,000 cells/well in 80 μL. […] After 24 h of incubation, the regular media was removed and the cells were washed thrice using bicarbonate and serum free DMEM, supplemented with glucose, 1.8 mg/mL; 1% glutamine and 1% sodium pyruvate and incubated in a non-CO2 incubator at 37° C. for 1 h. Mitostress assay was run using Oligomycin, 1 μM, FCCP 1 μM and mixture of Antimycin-A/Rotenone 1 μM each in ports A, B and C respectively using Seahorse XFe96 Extracellular Flux Analyzer.

[12] = test system: glycolysis in CT-26 cells; assay: Seahorse glycolytic stress test; type: cell-based, mouse; conditions: CT-26, 1 μM, 24 h incubation
Protocol: as §3
CT-26 cells were seeded in Seahorse XFe96 well plates at a density of 30,000 cells/well in 80 μL. […] After 24 h of incubation, the regular media was removed and the cells were washed thrice using bicarbonate, glucose and serum free DMEM, supplemented 1% glutamine and 1% sodium pyruvate and incubated in a non-CO2 incubator at 37° C. for an hour. Glycolytic stress test was run using glucose, 10 mM, Oligomycin, 1 μM and 2-Deoxyglucose, 50 mM in ports A, B and C respectively using Seahorse XFe96 Extracellular Flux Analyzer.

[13] = Dose-finding study, maximum tolerated dose; conditions: healthy mice, i.p., weight loss limit 10% over 14 days
HeLa cells [14] = assay: Annexin V/PI assay (cell death mechanism); conditions: 10 μM
Excerpt: For this experiment, Annexin V and PI staining method were utilised on HeLa cells.^15 Staurosporin, a known inducer of apoptosis, was used as a positive control.

[15] = test system: MRC-5 (normal lung fibroblasts); assay: Ruthenium cellular accumulation by ICP-MS, MRC5
Protocol: All the fractions (mitochondria, lysosomes and nucleus) were isolated from the same cellular sample for direct comparative purposes. The supernatant phases discarded during the isolation of nuclei, lysosomes and mitochondria procedures were collected and formed the “residual” fraction. An aliquot of crude lysate after homogenization, nuclear, mitochondrial (pellet lysed via freeze and thaw cycles followed by 20 minutes incubation in ultrasonic bath), lysosomal and residual fraction was each used for protein quantification using the Bradford method. The isolated samples were then lyophilized on an Alpha 2-4 LD plus (CHRIST). The resulting samples underwent chemical digestion with 10 mL of a 2% nitrohydrochloric acid solution for 24 h. The resulting suspensions were filtered on 0.20 μm non-pyrogenic sterile Filtropur filters (Sarstedt) and the obtained samples were injected in ICP-MS.
Ruthenium content of the samples was determined by means of a 7-step serial dilution in the range between 0 and 300 ppb in Ru (R>0.99) with a background equivalent concentration of BEC: 6.3 ppt and a detection limit of DL: 17 ppt. […] A solution of Indium (500 ppb) and Tungsten (500 ppb) was used as internal standard.

HeLa cells [16] = assay: Ruthenium cellular uptake and subcellular distribution by ICP-MS, HeLa; type: cell-based, human; conditions: 5 μM
Protocol: All the treatments were set up at the same concentration for comparative purposes. The medium was then removed, the cells washed with PBS and trypsinized. […] The organelles were then isolated via differential centrifugation. To separate lysosomes, a Lysosome Isolation Kit (Cat. Nr: LYSISO1, Sigma Aldrich) as well as the manufacturer procedure with minor modification was used. Briefly, the collected pellets were redissolved in 2.0 ml of extraction buffer added with proteases cocktail (delivered with the kit) and incubated for 15 min on ice. The samples were then homogenized with a pre-chilled dounce homogenizer (7 ml, tight pestle A, 22 strokes) and centrifuged at 1000 g for 10 min at 4° C. […] These steps of the isolation procedure were monitored under phase contrast microscope on Menzel-Glaser coverslips (Olympus IX81 microscope).
The supernatant was transferred in a fresh tube and centrifuged at 14000 g for 30 min at 4° C. […] The intact lysosomal content was proofed with Neutral-Red Reagent (delivered in the kit) with dual-wavelength absorbance mode at 460 and 510 nm over a kinetic of 3 minutes in a Spectramax M5 microplate reader (Molecular Devices). […]
Ruthenium content of the samples was determined by means of a 7-step serial dilution in the range between 0 and 300 ppb in Ru (R>0.99) with a background equivalent concentration of BEC: 6.3 ppt and a detection limit of DL: 17 ppt. […]

[17] = Mus musculus, CT26, CT-26 luc, 48 h incubation
[18] = Homo sapiens, A2780, 48 h incubation
[19] = Homo sapiens, A2780cis, A2780 cis (cisplatin resistant), 48 h incubation
[20] = Homo sapiens, A2780 ADR, 48 h; read-out: IC50 (μM) A2780 ADR
[21] = Homo sapiens, RPE-1 normal cells, 48 h incubation
[22] = Mus musculus, CT26, CT-26, 48 h incubation
[23] = A2780 cis (cisplatin resistant), 48 h incubation
[24] = A2780 ADR (doxorubicin resistant), 48 h incubation; read-out: IC50 (μM) A2780 ADR
[25] = RPE-1 normal cells, 48 h incubation

Molecule	IC50 [1, 17] [µM]	IC50 [2, 18] [µM]	IC50 [3, 19] [µM]	IC50 [4, 20] [µM]	IC50 [5, 21] [µM]	IC50 [6, 22] [µM]	IC50 (HeLa (human cervical); Homo sapiens, 48 h incubation) [µM]	other results
COc1cccc(O)c1O [3-methoxycatechol]	36.4 ± 6.28	18.7 ± 1.17	36.5 ± 1.94	30.1 ± 1.35	> 100	45.7 ± 4.21	56.2 ± 4.18	
Cc1cccc(O)c1O [3-methylcatechol]	12.1 ± 1.4	9.99 ± 1.26	14.7 ± 0.69	2.71 ± 0.82	> 100	17.5 ± 0.73	> 100	
Cc1ccc(O)c(O)c1 [4-methylcatechol]	33.3 ± 3.4	15.2 ± 1	34.6 ± 1.49	29.3 ± 1.96	> 100	34.4 ± 1.41	> 100	
O=[N+]([O-])c1ccc(O)c(O)c1 [4-nitrocatechol]	15.3 ± 1	30.9 ± 2.05	> 100	61.5 ± 3.63	45 ± 19	17.5 ± 1.02	> 100	
CC(C)(C)c1ccc(O)c(O)c1 [4-tertbutylcatechol]	9.72 ± 0.67	9.14 ± 0.7	14.6 ± 0.81	12.9 ± 1.2	55.1 ± 4.64	9.94 ± 0.63	93.1 ± 9.8	
N.N.[Cl][Pt][Cl] [Cisplatin]								IC50 ([1]; CT-26 luc, 48 h incubation): 2.42 ± 0.23 µM; IC50 ([2]; A2780, 48 h incubation): 4 ± 0.76 µM; IC50 [3, 23]: 18.3 ± 2.92 µM; IC50 [4, 24]: 8.32 ± 0.71 µM; IC50 [5, 25]: 30.2 ± 5.11 µM; geometric mean of overall survival (solid Ehrlich tumour [7]): 33.7 days; effect on tumour growth (tumour weight) (solid Ehrlich tumour [8]): significant inhibitory effect; IC50 ([6]; CT-26, 48 h incubation): 2.6 ± 0.18 µM; IC50 (HeLa (human cervical); 48 h incubation): 9.28 ± 0.2 µM
COc1cccc2c1C(=O)c1c(O)c3c(c(O)c1C2=O)C[C@@](O)(C(=O)CO)C[C@@H]3O[C@H]1C[C@H](N)[C@H](O)[C@H](C)O1 [Doxorubicin]		0.19 ± 0.03	0.54 ± 0.04	5.94 ± 0.58	0.89 ± 0.17	0.082 ± 0.003	0.34 ± 0.02	
Cc1occc(=O)c1O [Maltol, 3-Hydroxy-2-methyl-4H-pyran-4-one]	> 100	> 100	> 100	> 100	> 100	> 100	74 ± 14.6	
[Cl-].[Cl-].[Ru+2].c1ccc(-c2ccnc3c2ccc2c(-c4ccccc4)ccnc23)cc1.c1ccc(-c2ccnc3c2ccc2c(-c4ccccc4)ccnc23)cc1 [Ru(DIP)2Cl2]								IC50 ([1]; CT-26 luc, 48 h incubation): 6.65 ± 0.5 µM; IC50 ([2]; A2780, 48 h incubation): 4.69 ± 0.14 µM; IC50 [3, 23]: 6.36 ± 0.57 µM; IC50 [4, 24]: 78.3 ± 4.9 µM; IC50 [5, 25]: 3.13 ± 0.07 µM; IC50 ([6]; CT-26, 48 h incubation): 9.2 ± 1.22 µM; IC50 (HeLa (human cervical); 48 h incubation): 15 ± 0.4 µM
Oc1c(O)c(Br)c(Br)c(Br)c1Br [Tetrabromocatechol]								IC50 ([1]; Mus musculus, CT26, 48 h): 3.8 ± 0.34 µM; IC50 ([2]; Homo sapiens, A2780, 48 h): 8.75 ± 0.2 µM; IC50 ([3]; Homo sapiens, A2780cis, 48 h): 13.6 ± 0.88 µM; IC50 ([4]; Homo sapiens, A2780 ADR, 48 h, read-out: IC50 (μM) A2780 ADR): 14.4 ± 1.18 µM; IC50 ([5]; Homo sapiens, RPE-1, 48 h): 13.5 ± 1.7 µM; IC50 ([6]; Mus musculus, CT26, 48 h): 5.53 ± 0.37 µM; IC50 (HeLa (human cervical); Homo sapiens, 48 h): 29.9 ± 1.6 µM
Oc1ccccc1O [catechol]	11.5 ± 0.4	22.4 ± 5.83	56 ± 9.46	> 100	> 100	16	> 100	
Ru(DIP)2(4-Nitrocat) [Compound 8]								IC50 ([1]; CT-26 luc, 48 h incubation): 9.01 ± 0.19 µM; IC50 ([2]; A2780, 48 h incubation): 12.4 ± 0.8 µM; IC50 [3, 23]: 16.4 ± 2.04 µM; IC50 [4, 24]: 18.6 ± 2.02 µM; IC50 [5, 25]: 16.6 ± 0.98 µM; IC50 ([6]; CT-26, 48 h incubation): 7.61 ± 0.11 µM; IC50 (HeLa (human cervical); 48 h incubation): 10 ± 0.44 µM
[Ru(DIP)2(3-Methoxysq)](PF6) [Compound 4]								concentration dissolved [9]: 840 ± 60 µg/mL
[Ru(DIP)2(Sq)](PF6) [Compound 1]								effect on the 3 primary fuel pathways [10]: no direct effect; ATP production [11]: inhibited; mitochondrial respiration [11]: severely impaired; glycolysis of the cells [12]: not affected; maximum tolerated dose (MTD) [13]: 15 mg/kg of body weight; induction of apoptosis/necrosis (HeLa cells [14]; 30 min after treatment): induces apoptosis; type of cell death (HeLa cells [14]; 4 h or 24 h incubation): apoptosis as a main type of the cell death; compound taken up by healthy cells [15]: less than 25%; subcellular accumulation of ruthenium (HeLa cells [16]; 2 h, fractionated): preferential accumulation inside the nucleus; cellular uptake (internalization) (HeLa cells [16]; after 2 h): Near complete internalization
[Ru(DIP)2(Tetrabromocat)] [Compound 5]								IC50 ([1]; CT-26 luc, 48 h incubation): 11.6 ± 0.7 µM; IC50 ([2]; A2780, 48 h incubation): 10.2 ± 0.14 µM; IC50 [3, 23]: 17.2 ± 1.4 µM; IC50 [4, 24]: 15 ± 0.75 µM; IC50 [5, 25]: 23.2 ± 2.5 µM; IC50 ([6]; CT-26, 48 h incubation): 10.5 ± 0.5 µM; IC50 (HeLa (human cervical); 48 h incubation): 10.5 ± 0.25 µM
